# Data from US7582681B2, “Synergistic mixtures of 1,2-alkane diols” (Symrise GmbH & Co. KG, priority 2002, dated 2009).
# Legend:
# Experiment in all cases: Test for adequate preservation (European Pharmacopea), 1,2-diols and 1,2-diol mixtures in O/W emulsion
# Assay type in all cases: cell-based
# [1] = system: Staphylococcus aureus ATCC 6538; conditions: 3% diol(s) in O/W emulsion
# Description: (§1) A test for adequate preservation was carried out in accordance with the European Pharmacopea. The test thus consists of the contamination of the formulation, if possible in its final ratio, with a prescribed inoculum of suitable microorganisms, storage of the inoculated formulation at a specific temperature, taking of samples from the vessel at specific intervals and determination of the number of microorganisms in the samples taken in this way. The preserving properties are adequate if, under the conditions of the test, there is a distinct reduction or optionally no increase in the germ count in the inoculated formulations after the prescribed times at the prescribed temperatures. Experimental details of the test procedure are described in the European Pharmacopea (ISBN 3-7692-2768-9; 2001 supplement to the 3rd Edition, page 421-422, chapter 5.1.3). The initial germ count (CFU/g; “0” value) was in the range of 240,000 to 300,000 in the various test series. For the tests for adequate preservation, (a) potentially synergistically active mixtures taken into account and (b), for comparison purposes, the corresponding unmixed 1,2-diols were incorporated in O/W emulsions. […] The variation in the total concentration of 1,2-diols or 1,2-diol mixtures in the O/W emulsions was compensated for by increasing or reducing the water content, so that otherwise identical formulations always comprised 100 parts by weight in total.
# [2] = system: Candida albicans ATCC 10231; conditions: 3% diol(s) in O/W emulsion
# Description: as §1
# [3] = system: Pseudomonas aeruginosa ATCC 9027; conditions: 3% diol(s) in O/W emulsion
# Description: as §1
# [4] = system: Escherichia coli ATCC 8739; conditions: 3% diol(s) in O/W emulsion
# Description: as §1
# [5] = system: Aspergillus niger ATCC 16404; conditions: for germ count A. niger: 3% diol(s) in O/W emulsion; for reduction in the number of colony forming units (CFU) to the 0 value: Aspergillus niger, dosage of 3%, 28 days
# Description: A test for adequate preservation was carried out in accordance with the European Pharmacopea. The test thus consists of the contamination of the formulation, if possible in its final ratio, with a prescribed inoculum of suitable microorganisms, storage of the inoculated formulation at a specific temperature, taking of samples from the vessel at specific intervals and determination of the number of microorganisms in the samples taken in this way. The preserving properties are adequate if, under the conditions of the test, there is a distinct reduction or optionally no increase in the germ count in the inoculated formulations after the prescribed times at the prescribed temperatures. Experimental details of the test procedure are described in the European Pharmacopea (ISBN 3-7692-2768-9; 2001 supplement to the 3rd Edition, page 421-422, chapter 5.1.3). The initial germ count (CFU/g; “0” value) was in the range of 240,000 to 300,000 in the various test series. For the tests for adequate preservation, (a) potentially synergistically active mixtures taken into account and (b), for comparison purposes, the corresponding unmixed 1,2-diols were incorporated in O/W emulsions. […] The variation in the total concentration of 1,2-diols or 1,2-diol mixtures in the O/W emulsions was compensated for by increasing or reducing the water content, so that otherwise identical formulations always comprised 100 parts by weight in total. […] The Kull equation enables the pure substances and the active compound mixtures prepared therefrom to be compared in respect of their antimicrobial activity. With this equation the so-called synergy index (SI), which is a measure for a synergistic activity, but also for a possible antagonistic activity, of a mixture having an antimicrobial action, is determined. A synergistic effect is evident if the SI value determined is less than 1. On the other hand, if an SI of precisely 1 is calculated, there is a pure additive effect of two substances having an antimicrobial action. In the case of an SI value greater than 1, on the other hand, there is a (frequently undesired) antagonistic effect.
SMILES,germ count Staph. aureus ([1]; 0′-count (initial germ count)),germ count Staph. aureus ([1]; 24 h),germ count Staph. aureus ([1]; 48 h),germ count Staph. aureus ([1]; 7 d),germ count Staph. aureus ([1]; 14 d),germ count Staph. aureus ([1]; 28 d),germ count C. albicans ([2]; 0′-count (initial germ count)),germ count C. albicans ([2]; 24 h),germ count C. albicans ([2]; 48 h),germ count C. albicans ([2]; 4 d),germ count C. albicans ([2]; 7 d),germ count C. albicans ([2]; 14 d),germ count C. albicans ([2]; 28 d),germ count Ps. aeruginosa ([3]; 0′-count (initial germ count)),germ count Ps. aeruginosa ([3]; 24 h),germ count Ps. aeruginosa ([3]; 7 d),germ count Ps. aeruginosa ([3]; 14 d),germ count Ps. aeruginosa ([3]; 28 d),germ count E. coli ([4]; 0′-count (initial germ count)),germ count E. coli ([4]; 24 h),other results
"CCCCCCCCC(O)CO (centres unmarked) [DE 3, 1,2-decanediol]","350,000 CFU/ml","3,200 CFU/ml",0 CFU/ml,0 CFU/ml,0 CFU/ml,0 CFU/ml,"320,000 CFU/ml","3,500 CFU/ml",0 CFU/ml,0 CFU/ml,0 CFU/ml,0 CFU/ml,0 CFU/ml,"360,000 CFU/ml","2,600 CFU/ml",20.0 mill,15.0 mill,11.8 mill,"350,00 CFU/ml",0 CFU/ml,"germ count E. coli ([4]; 48 h): 0 CFU/ml; germ count E. coli ([4]; 4 d): 0 CFU/ml; germ count E. coli ([4]; 7 d): 0 CFU/ml; germ count E. coli ([4]; 14 d): 0 CFU/ml; germ count E. coli ([4]; 28 d): 0 CFU/ml; germ count A. niger ([5]; 0′-count (initial germ count)): 250,000 CFU/ml; germ count A. niger ([5]; 24 h): 73,000 CFU/ml; germ count A. niger ([5]; 48 h): 160,000 CFU/ml; germ count A. niger ([5]; 4 d): 100,000 CFU/ml; germ count A. niger ([5]; 7 d): 100,000 CFU/ml; germ count A. niger ([5]; 14 d): 73,000 CFU/ml; germ count A. niger ([5]; 28 d): 73,000 CFU/ml; reduction in the number of colony forming units (CFU) to the 0 value [5]: did not enable a reduction in the number of colony forming units (CFU) to the desired 0 value"
"CCCC(O)CO (centres unmarked) [PE3, 1,2-pentanediol]","240,000 CFU/ml","100,000 CFU/ml","12,000 CFU/ml",0 CFU/ml,0 CFU/ml,0 CFU/ml,"250,000 CFU/ml","245,000 CFU/ml","73,000 CFU/ml","28,000 CFU/ml","23,000 CFU/ml",<100 CFU/ml,0 CFU/ml,"290,000 CFU/ml","145,000 CFU/ml",0 CFU/ml,0 CFU/ml,0 CFU/ml,"300,000 CFU/ml","300,000 CFU/ml","germ count Ps. aeruginosa ([3]; 48 h): 12,000 CFU/ml; germ count Ps. aeruginosa ([3]; 4 d): 0 CFU/ml; germ count E. coli ([4]; 48 h): 145,000 CFU/ml; germ count E. coli ([4]; 4 d): 100,000 CFU/ml; germ count E. coli ([4]; 7 d): 40,000 CFU/ml; germ count E. coli ([4]; 14 d): 500 CFU/ml; germ count E. coli ([4]; 28 d): 0 CFU/ml; germ count A. niger ([5]; 0′-count (initial germ count)): 260,000 CFU/ml; germ count A. niger ([5]; 24 h): 180,000 CFU/ml; germ count A. niger ([5]; 48 h): 180,000 CFU/ml; germ count A. niger ([5]; 4 d): 180,000 CFU/ml; germ count A. niger ([5]; 7 d): 140,000 CFU/ml; germ count A. niger ([5]; 14 d): 140,000 CFU/ml; germ count A. niger ([5]; 28 d): 100,000 CFU/ml; reduction in the number of colony forming units (CFU) to the 0 value [5]: did not enable a reduction in the number of colony forming units (CFU) to the desired 0 value"
